US11319299B2, “Substituted carboxamides as inhibitors of WDR5 protein-protein binding” (PROPELLON THERAPEUTICS INC., priority 2016, dated 2022)

target: WDR5 (Homo sapiens (Human), UniProt P61964); experiment: Surface Plasmon Resonance (SPR) assay, KD and residence time; assay type: binding; conditions: surface plasmon resonance (SPR) assay; read-out: WDR5 binding affinity (KD)

| Kd [nM] | Compound |
| --- | --- |
| 2.01 | CC1CN(c2cc(F)c(-c3ccc(N4CCOCC4)nc3)cc2NC(=O)c2c[nH]c(=O)cc2C(F)F)CCN1C (stereo in doubt) [Example 331, 4-(difluoromethyl)-N-[4-fluoro-5-(6-morpholin-4-ylpyridin-3-yl)-2-[(3R)-3,4-dimethylpiperazin-1-yl]phenyl]-6-oxo-1H-pyridine-3-carboxamide] |
| 19.9 | C[C@@H]1CN(c2ncc(-c3cc(NC(=O)c4c[nH]c(=O)cc4C(F)(F)F)c(N4C[C@@H](C)N(C)[C@H](C)C4)cc3F)cn2)C[C@H](C)O1 (stereo in doubt) [Example 356, N-[4-fluoro-5-[2-[(2R,6S)-2,6-dimethylmorpholin-4-yl]pyrimidin-5-yl]-2-[(3R,5R)-3,4,5-trimethylpiperazin-1-yl]phenyl]-6-oxo-4-(trifluoromethyl)-1H-pyridine-3-carboxamide] |
| 8.9 | C[C@@H]1CN(c2cc(F)c(-c3cnc(N4CCOCC4)nc3)cc2NC(=O)c2ccc(O)cc2C(F)(F)F)C[C@H](C)N1C [Example 290, N-[4-fluoro-5-(2-morpholin-4-ylpyrimidin-5-yl)-2-[(3R,5S)-3,4,5-trimethylpiperazin-1-yl]phenyl]-4-hydroxy-2-(trifluoromethyl)benzamide] |

More lines, now with the values behind:

| Compound | Kd [nM] |
| --- | --- |
| C[C@@H]1CN(c2cc(F)c(-c3ccc(Cl)cc3)cc2NC(=O)c2c[nH]c(=O)cc2C(F)(F)F)C[C@H](C)N1C [Example 147, N-[5-(4-chlorophenyl)-4-fluoro-2-[(3R,5S)-3,4,5-trimethylpiperazin-1-yl]phenyl]-6-oxo-4-(trifluoromethyl)-1H-pyridine-3-carboxamide] | 4.44 |
| C[C@@H]1CN(c2cc(F)c(-c3cnc(N4CCOCC4)nc3)cc2NC(=O)c2cccc(C(F)(F)F)c2)C[C@H](C)N1C [Example 186, N-[4-fluoro-5-(2-morpholin-4-ylpyrimidin-5-yl)-2-[(3R,5S)-3,4,5-trimethylpiperazin-1-yl]phenyl]-3-(trifluoromethyl)benzamide] | 40.2 |
| C[C@@H]1CN(c2cc(F)c(-c3ccc(OC4CCOCC4)nc3)cc2NC(=O)c2c[nH]c(=O)cc2C(F)(F)F)C[C@H](C)N1C [Example 101, N-[4-fluoro-5-[6-(oxan-4-yloxy)pyridin-3-yl]-2-[(3R,5S)-3,4,5-trimethylpiperazin-1-yl]phenyl]-6-oxo-4-(trifluoromethyl)-1H-pyridine-3-carboxamide] | 0.32 |
| C[C@@H]1CN(c2cc(F)c(C3=CCN(Cc4cnn(C)c4)CC3)cc2NC(=O)c2c[nH]c(=O)cc2C(F)(F)F)C[C@H](C)N1C [Example 164, N-[4-fluoro-5-[1-[(I-methylpyrazol-4-yl)methyl]-3,6-dihydro-2H-pyridin-4-yl]-2-[(3R,5S)-3,4,5-trimethylpiperazin-1-yl]phenyl]-6-oxo-4-(trifluoromethyl)-1H-pyridine-3-carboxamide] | 1.43 |
| CC(=O)Nc1ccc(-c2cc(NC(=O)c3c[nH]c(=O)cc3C(F)(F)F)c(N3CCN(C)C(C)C3)cc2F)cn1 (stereo in doubt) [Example 196, N-[5-(6-acetamidopyridin-3-yl)-4-fluoro-2-[(3R)-3,4-dimethylpiperazin-1-yl]phenyl]-6-oxo-4-(trifluoromethyl)-1H-pyridine-3-carboxamide] | 0.24 |
| C[C@@H]1CN(c2cc(F)c(-c3ccc4c(c3)OCCO4)cc2NC(=O)c2c[nH]c(=O)cc2C(F)(F)F)C[C@H](C)N1C [Example 70, N-[5-(2,3-dihydro-1,4-benzodioxin-6-yl)-4-fluoro-2-[(3R,5S)-3,4,5-trimethylpiperazin-1-yl]phenyl]-6-oxo-4-(trifluoromethyl)-1H-pyridine-3-carboxamide] | 0.429 |
| CC1CN(c2cc(F)c(-c3ccc(OCC4CC4)nc3)cc2NC(=O)c2c[nH]c(=O)cc2C(F)(F)F)CCN1C (stereo in doubt) [Example 198, N-[5-[6-(cyclopropylmethoxy)pyridin-3-yl]-4-fluoro-2-[(3R)-3,4-dimethylpiperazin-1-yl]phenyl]-6-oxo-4-(trifluoromethyl)-1H-pyridine-3-carboxamide] | 0.666 |
| C[C@@H]1CN(c2ccc(-c3cc(NC(=O)c4c[nH]c(=O)cc4C(F)(F)F)c(N4C[C@@H](C)N(C)[C@@H](C)C4)cc3F)cn2)C[C@H](C)O1 [Example 272, N-[4-fluoro-5-[6-[(2R,6S)-2,6-dimethylmorpholin-4-yl]pyridin-3-yl]-2-[(3S,5R)-3,4,5-trimethylpiperazin-1-yl]phenyl]-6-oxo-4-(trifluoromethyl)-1H-pyridine-3-carboxamide] | 0.532 |
| CC(=O)Nc1ccc(-c2cc(NC(=O)c3cn(C)c(=O)cc3C(F)F)c(N3CCN(C)C(C)C3)cc2F)cn1 (stereo in doubt) [Example 217, N-[5-(6-acetamidopyridin-3-yl)-4-fluoro-2-[(3R)-3,4-dimethylpiperazin-1-yl]phenyl]-4-(difluoromethyl)-1-methyl-6-oxopyridine-3-carboxamide] | 4.32 |
| C[C@@H]1CN(c2cc(F)c(-c3ccnc(OCC4CC4)c3)cc2NC(=O)c2c[nH]c(=O)cc2C(F)(F)F)C[C@H](C)N1C [Example 66, N-[5-[2-(cyclopropylmethoxy)pyridin-4-yl]-4-fluoro-2-[(3R,5S)-3,4,5-trimethylpiperazin-1-yl]phenyl]-6-oxo-4-(trifluoromethyl)-1H-pyridine-3-carboxamide] | 1.16 |

same assay, conditions: surface plasmon resonance (SPR); read-out: WDR5 binding affinity (KD)

| Kd [nM] | Compound |
| --- | --- |
| 5.66 | C[C@@H]1CN(c2cc(F)c(-c3csc(C(=O)N4CCOCC4)n3)cc2NC(=O)c2cn(C)c(=O)cc2C(F)(F)F)C[C@H](C)N1C [Example 527, N-[4-fluoro-5-[2-(morpholine-4-carbonyl)-1,3-thiazol-4-yl]-2-[(3R,5S)-3,4,5-trimethylpiperazin-1-yl]phenyl]-1-methyl-6-oxo-4-(trifluoromethyl)pyridine-3-carboxamide] |
| 10.4 | C[C@@H]1CN(c2cc(F)c(-c3ccc(F)c(C(N)=O)c3)cc2NC(=O)c2ccc(F)cc2C(F)(F)F)C[C@H](C)N1C [Example 556, 2-fluoro-5-[2-fluoro-5-[[4-fluoro-2-(trifluoromethyl)benzoyl]amino]-4-[(3R,5S)-3,4,5-trimethylpiperazin-1-yl]phenyl]benzamide] |
| 145 | CCN(CC)[C@@H]1CCN(c2cc(F)c(-c3cnc(N4CCOCC4)nc3)cc2NC(=O)c2cn(C)c(=O)cc2C(F)(F)F)C1 [Example 428, N-[4-fluoro-5-(2-morpholin-4-ylpyrimidin-5-yl)-2-[(3R)-3-(diethylamino)pyrrolidin-1-yl]phenyl]-1-methyl-6-oxo-4-(trifluoromethyl)pyridine-3-carboxamide] |
| 3.43 | CNC(=O)c1ccc(-c2cc(NC(=O)c3cn(C)c(=O)cc3C(F)F)c(N3CCN(C)C(C)C3)cc2F)cc1F (stereo in doubt) [Example 653, 4-(difluoromethyl)-N-[4-fluoro-5-[3-fluoro-4-(methylcarbamoyl)phenyl]-2-[(3R)-3,4-dimethylpiperazin-1-yl]phenyl]-1-methyl-6-oxopyridine-3-carboxamide] |
| 0.922 | CC1CN(c2cc(F)c(-c3cnc(N4CCC(C)(O)CC4)nc3)cc2NC(=O)c2ccc(F)cc2C(F)(F)F)CCN1C (stereo in doubt) [Example 613, 4-fluoro-N-[4-fluoro-5-[2-(4-hydroxy-4-methylpiperidin-1-yl)pyrimidin-5-yl]-2-[(3R)-3,4-dimethylpiperazin-1-yl]phenyl]-2-(trifluoromethyl)benzamide] |
| 7.61 | C[C@@H]1CN(c2cc(F)c(C3=CCCN(c4ncc(C#N)s4)CC3)cc2NC(=O)c2c[nH]c(=O)cc2C(F)F)C[C@H](C)N1C [Example 731, N-[5-[1-(5-cyano-1,3-thiazol-2-yl)-2,3,6,7-tetrahydroazepin-4-yl]-4-fluoro-2-[(3R,5S)-3,4,5-trimethylpiperazin-1-yl]phenyl]-4-(difluoromethyl)-6-oxo-1H-pyridine-3-carboxamide] |
| 0.474 | C[C@@H]1CN(c2cc(F)c(C3=CCN(c4ncc(CN5CCOCC5)cn4)C3)cc2NC(=O)c2c[nH]c(=O)cc2C(F)(F)F)C[C@H](C)N1C [Example 458, N-[4-fluoro-5-[1-[5-(morpholin-4-ylmethyl)pyrimidin-2-yl]-2,5-dihydropyrrol-3-yl]-2-[(3R,5S)-3,4,5-trimethylpiperazin-1-yl]phenyl]-6-oxo-4-(trifluoromethyl)-1H-pyridine-3-carboxamide] |
| 1.8 | C[C@@H]1CN(c2ncc(-c3cc(NC(=O)c4cn(C)c(=O)cc4C(F)(F)F)c(N4CCN(C)[C@@H](C)C4)cc3F)cn2)CCO1 [Example 544, N-[4-fluoro-2-[(3S)-3,4-dimethylpiperazin-1-yl]-5-[2-[(2R)-2-methylmorpholin-4-yl]pyrimidin-5-yl]phenyl]-1-methyl-6-oxo-4-(trifluoromethyl)pyridine-3-carboxamide] |
| 2.44 | C[C@@H]1CN(c2cc(F)c(-c3nc(C(=O)N4CCOCC4)cs3)cc2NC(=O)c2c[nH]c(=O)cc2C(F)(F)F)C[C@H](C)N1C [Example 486, N-[4-fluoro-5-[4-(morpholine-4-carbonyl)-1,3-thiazol-2-yl]-2-[(3R,5S)-3,4,5-trimethylpiperazin-1-yl]phenyl]-6-oxo-4-(trifluoromethyl)-1H-pyridine-3-carboxamide] |
| 1.47 | CC1CN(c2cc(F)c(-c3cnc(N4CCN(C5CC5)CC4)nc3)cc2NC(=O)c2ccc(F)cc2C(F)(F)F)CCN1C (stereo in doubt) [Example 435, N-[5-[2-(4-cyclopropylpiperazin-1-yl)pyrimidin-5-yl]-4-fluoro-2-[(3R)-3,4-dimethylpiperazin-1-yl]phenyl]-4-fluoro-2-(trifluoromethyl)benzamide] |

Further lines, the compound ahead of its results:

| Compound | Kd [nM] |
| --- | --- |
| 4-(difluoromethyl)-N-[4-fluoro-5-[2-[(2R)-2-methylmorpholin-4-yl]pyrimidin-5-yl]-2-[(3S,5R)-3,4,5-trimethylpiperazin-1-yl]phenyl]-1-methyl-6-oxopyridine-3-carboxamide [Example 481] | 4.89 |
| 4-(difluoromethyl)-N-[4-fluoro-5-[6-(oxan-4-yloxy)pyridin-3-yl]-2-[(3R)-3,4-dimethylpiperazin-1-yl]phenyl]-6-oxo-1H-pyridine-3-carboxamide [Example 403] | 1.16 |
